Source: article PMC8559926, “Design, synthesis and biological evaluation of N-oxide derivatives with potent in vivo antileishmanial activity” (PLoS ONE, 2021)
“And” between values parts separate entries of the source, which are not always exact repeats. Equal entries are not always repeated. Where two headings read alike, the source gives them in different places.

Tests used:
[1] = Toxicity for mice: plasma biochemical markers; assay type: in vivo, BALB/c mice; conditions: for plasma creatinine: any group; for plasma creatinine / plasma total bilirubin levels: end of treatment; for plasma levels of AST, ALP, ALT, and creatinine: treated vs healthy groups; for plasma total bilirubin levels: treated vs infected untreated mice
Protocol: Toxicity for mice assays. The blood was collected in heparinized tubes and immediately centrifuged at 700×g for 10 min at 25°C to obtain plasma. Plasma levels of aspartate (AST), and alanine (ALT) transferases, alkaline phosphatase (ALP), creatinine, urea, and total bilirubin were determined at the end of treatment using commercial kits (Labtest Diagnóstica S.A., Brazil). The assays were performed according to Velasquez et al. (2017) and the data are expressed as average ± SEM. The statistical differences between groups were evaluated using a one-way analysis of variance, followed by the Student-Newman-Keuls multiple comparison test using GraphPad Prism software. Differences were considered significant when P values were […].

L. infantum [2] = experiment: In vivo parasite load (LDU index) in L. infantum-infected BALB/c mice; conditions: oral, twice a day for five days; for reduction of parasite burden in liver and spleen: 7.7 mg/kg/day
Protocol: To evaluate the in vivo antileishmanial efficacy of compound 4f, male BALB/c mice, 20 ± 4 g, 6 weeks-old (CEMIB-UNICAMP) were intraperitoneally inoculated with 100 μL (1x10^8 parasites) of infective promastigotes of L. infantum (MHOM/MA/67/ITMAP-263) at the stationary phase. After nine days post-infection, the animals were treated by oral gavage (100 μL per dose) twice daily for 5 days with a 12h interval between doses according to the dosages described below, and euthanized. […] Work solutions were daily prepared in PBS. Negative controls correspond to infected and non-treated mice. As a positive control, a group of mice received 7.7 mg/kg/day of miltefosine, and a group of uninfected and untreated mice (healthy animals) was used for the analysis. The compound and miltefosine were orally administered twice a day for five days. After treatment, the animals were euthanized and the treatment efficacy was assessed by measuring the parasite burden of the infected animals using the LDU index.
LDU index. After the euthanasia, mice´s liver and spleen were collected for parasite quantification. Tissues impression onto microscopy slides were made, followed by Giemsa-staining and examining under optical microscopy. The corresponding number of amastigotes per 1,000 nucleated cells/organ weight was expressed as LDU index according to Stauber (1958), Sousa-Batista (2018), and Kwofie (2019).

[3] = Quantification of nitrite by the Griess reaction (NO release); conditions: compounds at 10^-4 M, 5 mM of L-Cys (1:50), 1 h, 37°C
Protocol: The levels of nitrite resulting from the oxidation of NO in the aqueous medium were quantified through the Griess reaction after incubation with an excess of L-cysteine (1:50) according to previously published methods. The experiments were performed in triplicate and repeated three times on different days. […] The results were expressed as a percentage of nitrite (% NO2^−; mol/mol). Statistical analysis was carried out using ANOVA followed by Tukey’s Multiple Comparison Test at a significance level of p < 0.05.
The ability of all synthesized compounds (4a-x) and (14a-g) to release NO was evaluated by indirect determination of NO2^− production. The compounds at 10^−4 M were incubated for 1 h at 37°C in the presence of L-cysteine (1:50) and the produced NO2^− was determined through Griess reaction (Table 1).

[4] = molecular target: T1, recombinant Leishmania cysteine protease LmCPB2.8ΔCTE (CPB) (Leishmania mexicana, UniProt P36400); experiment: Enzymatic inhibition of recombinant CPB (Z-FR-AMC substrate); assay type: biochemical
T1 construct: The ORF that codes for the Leishmania mexicana CPB, lacking the C terminal extension (CPB2.8ΔCTE); made in house; host or cells: Pichia pastoris X-33
Protocol: The concentration of the active recombinant CPB expressed in Pichia pastoris supernatant was determined by active site titration with N-(trans-Epoxysuccinyl)-L-leucine 4-guanidinobutylamide E-64 (CalBiochem) that was found 1 μM. The active enzyme represented about 80% of the total recombinant enzyme.
Compounds were dissolved in DMSO to a final concentration of 20 μM. The assays were performed in dark 96 well-plates, containing 200 μL of 100 mM sodium acetate buffer (pH 5.5), 200 mM NaCl, 0.01% Triton-X100, 2 nM enzyme, various concentrations of inhibitor, and 5 μM of the substrate Z-FR-AMC (Calbiochem). The final concentration of DMSO was 1% (v/v). The enzyme was pre-incubated at 30°C for 2 minutes before the inhibitor was added, waited 2 minutes and after this incubation, the reaction was started by the addition of the substrate, Z-FR-AMC. The fluorescence was monitored at 380 nm excitation and 460 nm emission filters for 2 minutes at 30°C in an Infinite 200 PRO microplate reader (Tecan, Männedorf, Switzerland). The residual activity was measured by the ratio between enzyme + substrate and enzyme + inhibitor + substrate. […] Results were expressed in mean ± standard deviation of two independent replicates using Bioestat Software.

[5] = tested on: L. infantum intracellular amastigotes; experiment: Anti-amastigote activity in infected murine peritoneal macrophages; assay type: cell-based; conditions: Leishmania infantum, Peritoneal macrophage, 24 h, read-out: EC50 - Effective Concentration that kills 50% of L. infantum amastigote forms
Protocol: The antileishmanial activity against L. infantum intracellular amastigotes, according to the following methodology. […] Were used infected macrophages as negative control and amphotericin B as the positive control.
After incubation, cells were fixed with methanol and Giemsa stained. The effective concentration to 50% amastigotes death (EC) was obtained by counting 100 macrophages in duplicate, in two independent experiments. The values were obtained by non-linear regression on Bioestat® software, and results were expressed in mean ± standard deviation.

L. infantum [6] = tested on: L. infantum; set-up: method as in PMID 28866421; conditions: L. infantum-infected hamsters, cited from earlier work
[7] = tested on: L. infantum intracellular amastigotes; set-up: method as in PMID 24913171; conditions: prototype/reference compounds, cited from earlier work
[8] = molecular target: T1, recombinant Leishmania cysteine protease LmCPB2.8ΔCTE (CPB); conditions: read-out: IC50 - Inhibition of CPB (rCPB2.8); prototype/reference compounds; cited from earlier work
[9] = tested on: murine peritoneal macrophages; set-up: method as in PMID 24913171; conditions: prototype/reference compounds; cited from earlier work

T1 sequence (P36400 126-341, stated change not applied): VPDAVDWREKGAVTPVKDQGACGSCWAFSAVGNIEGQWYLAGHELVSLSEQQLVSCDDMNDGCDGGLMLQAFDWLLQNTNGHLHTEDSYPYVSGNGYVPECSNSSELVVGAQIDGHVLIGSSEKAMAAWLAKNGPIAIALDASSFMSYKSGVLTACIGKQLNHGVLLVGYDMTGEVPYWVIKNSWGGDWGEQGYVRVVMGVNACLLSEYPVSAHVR

| SMILES | plasma creatinine [1] | plasma levels of AST, ALP, ALT, and creatinine [1] | plasma total bilirubin levels [1] | reduction of parasite burden in liver and spleen (L. infantum [2]) | % NO2- (mol/mol) [3] | IC50 [4] [µM] | EC50 [5] [µM] | melting point [°C] | other results |
| --- | --- | --- | --- | --- | --- | --- | --- | --- | --- |
| CCCCCCCCCCCCCCCCOP(=O)([O-])OCC[N+](C)(C)C [miltefosine, reference compound] | no alterations | similar | no significant alterations | ~ 90% | – | – | – | – | – |
| NC(=O)N/N=C/c1ccc(Oc2no[n+]([O-])c2-c2ccccc2)cc1 [Compound 4f, (E)-4-(4-((2-carbamoylhydrazono)methyl)phenoxy)-3-phenyl-1,2,5-oxadiazole 2-oxide] | no alterations | similar | no significant alterations | 90% and ~ 90% | 9.1 ± 0.7 % | 4.5 ± 0.1 | 3.6 ± 0.1 | – | side effect (biochemical markers) ([1]; up to the highest dose 7.7 mg/kg/day): without causing any evident side effect; parasite reduction (L. infantum [2]; 2.56 mg/kg/day): 77% |
| NC(=O)c1c(COc2ccc(/C=N/NC(N)=S)cc2)no[n+]1[O-] [Compound 4o, (E)-4-((4-((2-carbamothioylhydrazono)methyl)phenoxy)methyl)-3-carbamoyl-1,2,5-oxadiazole 2-oxide] | – | – | – | – | 11.8 ± 1.2 % | > 20 | > 10 | 232 to 234 | – |
| NC(=O)c1c(COc2ccc(/C=N/NC(=O)c3ccc(O)cc3)cc2)no[n+]1[O-] [Compound 4i, (E)-3-carbamoyl-4-((4-((2-(4-hydroxybenzoyl)hydrazono)methyl)phenoxy)methyl)-1,2,5-oxadiazole 2-oxide] | – | – | – | – | 12.3 ± 0.9 % | 5.7 ± 0.4 | > 10 | 201 to 203 | – |
| O=C(N/N=C/c1ccc(Oc2no[n+]([O-])c2S(=O)(=O)c2ccccc2)cc1)c1cccc(O)c1 [Lapdesf14e, (E)-4-(4-((2-(3-hydroxybenzoyl)hydrazono)methyl)phenoxy)-3-(phenylsulfonyl)-1,2,5-oxadiazole 2-oxide] | – | – | – | – | 26% and 26.0 ± 1.6 % | – | – | – | decrease of parasite load (L. infantum [6]; 15 days, intraperitoneal): 50%; reduction of parasite load in the liver (L. infantum [6]): 54.2%; reduction of parasite load in the spleen (L. infantum [6]): 49.9%; toxic effects (L. infantum [6]): without toxic effects; SI - Selective Index (CC50/EC50) [7]: 66.4; EC50 ([7]; read-out: EC50 L. infantum amastigote forms): 3.1 ± 0.1 µM; IC50 [8]: 3.1 ± 0.4 µM; CC50 [9]: 208.3 ± 0.2 µM |
